# PubChem BioAssay AID2060616 (Molecular Pharmacology Branch, DTP, NCI, 2025)
# System: 377384-186-R-J1-PDC complex spheroid viability
# Assay: Anticancer human tumor 377384-186-R-J1-PDC patient-derived pancreatic carcinoma cell line growth inhibition [CLK]
# Conditions: for IC50: curve of first compound; for viability, T/C: stronger effect = lower value
# In short: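 Patient-derived tumor cells grown as complex spheroids with HUVEC endothelial cells and mesenchymal stem cells, treated with drug combinations. Concentrations descend in half-log steps from near clinical Cmax, or from 10 microM if Cmax unknown.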
# [1] = second compound 0.0316 µM, first compound 0.00949 µM
# [2] = second compound 0.0316 µM, first compound 0.03 µM
# [3] = second compound 0.0316 µM, first compound 0.0949 µM
# [4] = second compound 0.0316 µM, first compound 0.3 µM
# [5] = second compound 0.1 µM, first compound 0.00949 µM
# [6] = second compound 0.1 µM, first compound 0.03 µM
# [7] = second compound 0.1 µM, first compound 0.0949 µM
# [8] = second compound 0.1 µM, first compound 0.3 µM
# [9] = second compound 0.316 µM, first compound 0.00949 µM
# [10] = second compound 0.316 µM, first compound 0.03 µM
# [11] = second compound 0.316 µM, first compound 0.0949 µM
# [12] = second compound 0.316 µM, first compound 0.3 µM
# [13] = second compound 1 µM, first compound 0.00949 µM
# [14] = second compound 1 µM, first compound 0.03 µM
# [15] = second compound 1 µM, first compound 0.0949 µM
# [16] = second compound 1 µM, first compound 0.3 µM
# [17] = second compound 3.16 µM, first compound 0.00949 µM
# [18] = second compound 3.16 µM, first compound 0.03 µM
# [19] = second compound 3.16 µM, first compound 0.0949 µM
# [20] = second compound 3.16 µM, first compound 0.3 µM
# [21] = second compound 10 µM, first compound 0.00949 µM
# [22] = second compound 10 µM, first compound 0.03 µM
# [23] = second compound 10 µM, first compound 0.0949 µM
# [24] = second compound 10 µM, first compound 0.3 µM
# [25] = second compound 0.0316 µM, first compound 0.0316 µM
# [26] = second compound 0.0316 µM, first compound 0.1 µM
# [27] = second compound 0.0316 µM, first compound 0.316 µM
# [28] = second compound 0.0316 µM, first compound 1 µM
# [29] = second compound 0.0316 µM, first compound 3.16 µM
# [30] = second compound 0.0316 µM, first compound 10 µM
# [31] = second compound 0.1 µM, first compound 0.0316 µM
# [32] = second compound 0.1 µM, first compound 0.1 µM
# [33] = second compound 0.1 µM, first compound 0.316 µM
# [34] = second compound 0.1 µM, first compound 1 µM
# [35] = second compound 0.1 µM, first compound 3.16 µM
# [36] = second compound 0.1 µM, first compound 10 µM
# [37] = second compound 0.316 µM, first compound 0.0316 µM
# [38] = second compound 0.316 µM, first compound 0.1 µM
# [39] = second compound 0.316 µM, first compound 0.316 µM
# [40] = second compound 0.316 µM, first compound 1 µM
# [41] = second compound 0.316 µM, first compound 3.16 µM
# [42] = second compound 0.316 µM, first compound 10 µM
# [43] = second compound 1 µM, first compound 0.0316 µM
# [44] = second compound 1 µM, first compound 0.1 µM
# [45] = second compound 1 µM, first compound 0.316 µM
# [46] = second compound 1 µM, first compound 1 µM
# [47] = second compound 1 µM, first compound 3.16 µM
# [48] = second compound 1 µM, first compound 10 µM
# [49] = second compound 3.16 µM, first compound 0.0316 µM
# [50] = second compound 3.16 µM, first compound 0.1 µM
# [51] = second compound 3.16 µM, first compound 0.316 µM
# [52] = second compound 3.16 µM, first compound 1 µM
# [53] = second compound 3.16 µM, first compound 3.16 µM
# [54] = second compound 3.16 µM, first compound 10 µM
# [55] = second compound 10 µM, first compound 0.0316 µM
# [56] = second compound 10 µM, first compound 0.1 µM
# [57] = second compound 10 µM, first compound 0.316 µM
# [58] = second compound 10 µM, first compound 1 µM
# [59] = second compound 10 µM, first compound 3.16 µM
# [60] = second compound 10 µM, first compound 10 µM
# 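Further: spheroids exposed to agents for 7 days before reading.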
# 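Wherever viability, T/C is given: luminescence signal used as a stand-in for viable cells.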
compound,measurement,setting,value
CC(C)CC(NC(=O)C(Cc1ccccc1)NC(=O)c1cnccn1)B(O)O (stereo not drawn) + CN1CCN(c2cc(C(=O)Nc3cc4cc(-c5cnn(C)c5)ccc4cn3)ccn2)CC1,IC50,second compound 0.0316 µM,1.66 nM
same,IC50,second compound 0.1 µM,1.65 nM
same,IC50,second compound 0.316 µM,< 0.949 nM
same,IC50,second compound 1 µM,< 0.949 nM
same,IC50,second compound 3.16 µM,< 0.949 nM
same,IC50,second compound 10 µM,< 0.949 nM
same,"viability, T/C","second compound 0.0316 µM, first compound 0.000949 µM",95.5%
same,"viability, T/C","second compound 0.0316 µM, first compound 0.003 µM",2.33%
same,"viability, T/C",[1],0.36%
same,"viability, T/C",[2],0.23%
same,"viability, T/C",[3],0.25%
same,"viability, T/C",[4],0.18%
same,"viability, T/C","second compound 0.1 µM, first compound 0.000949 µM",94.8%
same,"viability, T/C","second compound 0.1 µM, first compound 0.003 µM",1.28%
same,"viability, T/C",[5],0.36%
same,"viability, T/C",[6],0.22%
same,"viability, T/C",[7],0.23%
same,"viability, T/C",[8],0.22%
same,"viability, T/C","second compound 0.316 µM, first compound 0.000949 µM",22.2%
same,"viability, T/C","second compound 0.316 µM, first compound 0.003 µM",1.48%
same,"viability, T/C",[9],0.19%
same,"viability, T/C",[10],0.21%
same,"viability, T/C",[11],0.28%
same,"viability, T/C",[12],2.08%
same,"viability, T/C","second compound 1 µM, first compound 0.000949 µM",0.64%
same,"viability, T/C","second compound 1 µM, first compound 0.003 µM",0.47%
same,"viability, T/C",[13],0.35%
same,"viability, T/C",[14],0.22%
same,"viability, T/C",[15],0.4%
same,"viability, T/C",[16],0.32%
same,"viability, T/C","second compound 3.16 µM, first compound 0.000949 µM",1.01%
same,"viability, T/C","second compound 3.16 µM, first compound 0.003 µM",1.51%
same,"viability, T/C",[17],0.92%
same,"viability, T/C",[18],0.56%
same,"viability, T/C",[19],0.48%
same,"viability, T/C",[20],1.78%
same,"viability, T/C","second compound 10 µM, first compound 0.000949 µM",0.25%
same,"viability, T/C","second compound 10 µM, first compound 0.003 µM",0.32%
same,"viability, T/C",[21],0.24%
same,"viability, T/C",[22],0.24%
same,"viability, T/C",[23],0.43%
same,"viability, T/C",[24],1.64%
CC1(C)CCC(CN2CCN(c3ccc(C(=O)NS(=O)(=O)c4ccc(NCC5CCOCC5)c([N+](=O)[O-])c4)c(Oc4cnc5[nH]ccc5c4)c3)CC2)=C(c2ccc(Cl)cc2)C1 + CN1CCN(c2cc(C(=O)Nc3cc4cc(-c5cnn(C)c5)ccc4cn3)ccn2)CC1,IC50,second compound 0.0316 µM,5530 nM
same,IC50,second compound 0.1 µM,5250 nM
same,IC50,second compound 0.316 µM,< 31.6 nM
same,IC50,second compound 1 µM,< 31.6 nM
same,IC50,second compound 3.16 µM,< 31.6 nM
same,IC50,second compound 10 µM,< 31.6 nM
same,"viability, T/C",[25],96%
same,"viability, T/C",[26],97.6%
same,"viability, T/C",[27],102%
same,"viability, T/C",[28],115%
same,"viability, T/C",[29],89.7%
same,"viability, T/C",[30],8.02%
same,"viability, T/C",[31],95.7%
same,"viability, T/C",[32],101%
same,"viability, T/C",[33],89.8%
same,"viability, T/C",[34],92.7%
same,"viability, T/C",[35],83.8%
same,"viability, T/C",[36],7.17%
same,"viability, T/C",[37],24.6%
same,"viability, T/C",[38],27.9%
same,"viability, T/C",[39],27.9%
same,"viability, T/C",[40],21.6%
same,"viability, T/C",[41],20.4%
same,"viability, T/C",[42],3.98%
same,"viability, T/C",[43],1.15%
same,"viability, T/C",[44],1.09%
same,"viability, T/C",[45],1.14%
same,"viability, T/C",[46],1.04%
same,"viability, T/C",[47],1.22%
same,"viability, T/C",[48],1.79%
same,"viability, T/C",[49],0.38%
same,"viability, T/C",[50],0.8%
same,"viability, T/C",[51],0.43%
same,"viability, T/C",[52],0.54%
same,"viability, T/C",[53],1.02%
same,"viability, T/C",[54],1.42%
same,"viability, T/C",[55],0.41%
same,"viability, T/C",[56],0.46%
same,"viability, T/C",[57],0.55%
same,"viability, T/C",[58],0.59%
same,"viability, T/C",[59],0.61%
same,"viability, T/C",[60],0.95%
CC1COCCN1c1cc(C2(S(C)(=N)=O)CC2)nc(-c2ccnc3[nH]ccc23)n1 (stereo not drawn) + CN1CCN(c2cc(C(=O)Nc3cc4cc(-c5cnn(C)c5)ccc4cn3)ccn2)CC1,IC50,second compound 0.0316 µM,2160 nM
same,IC50,second compound 0.1 µM,1840 nM
same,IC50,second compound 0.316 µM,< 31.6 nM
same,IC50,second compound 1 µM,< 31.6 nM
same,IC50,second compound 3.16 µM,< 31.6 nM
same,IC50,second compound 10 µM,< 31.6 nM
same,"viability, T/C",[25],97.6%
same,"viability, T/C",[26],102%
same,"viability, T/C",[27],97.8%
same,"viability, T/C",[28],77.3%
same,"viability, T/C",[29],36.7%
same,"viability, T/C",[30],19.1%
same,"viability, T/C",[31],110%
same,"viability, T/C",[32],108%
same,"viability, T/C",[33],95.5%
same,"viability, T/C",[34],69.1%
same,"viability, T/C",[35],33.1%
same,"viability, T/C",[36],17.2%
same,"viability, T/C",[37],27%
same,"viability, T/C",[38],32%
same,"viability, T/C",[39],24.1%
same,"viability, T/C",[40],24.8%
same,"viability, T/C",[41],14.1%
same,"viability, T/C",[42],9.42%
same,"viability, T/C",[43],1.04%
same,"viability, T/C",[44],1.24%
same,"viability, T/C",[45],1.39%
same,"viability, T/C",[46],1.11%
same,"viability, T/C",[47],0.85%
same,"viability, T/C",[48],0.48%
same,"viability, T/C",[49],0.45%
same,"viability, T/C",[50],0.34%
same,"viability, T/C",[51],0.48%
same,"viability, T/C",[52],0.44%
same,"viability, T/C",[53],0.69%
same,"viability, T/C",[54],0.65%
same,"viability, T/C",[55],0.51%
same,"viability, T/C",[56],0.45%
same,"viability, T/C",[57],1.23%
same,"viability, T/C",[58],0.54%
same,"viability, T/C",[59],1.37%
same,"viability, T/C",[60],0.58%
NC(=O)C(=Cn1cnc(-c2cc(C(F)(F)F)cc(C(F)(F)F)c2)n1)c1cncnc1 + CN1CCN(c2cc(C(=O)Nc3cc4cc(-c5cnn(C)c5)ccc4cn3)ccn2)CC1,IC50,second compound 0.0316 µM,99.6 nM
same,IC50,second compound 0.1 µM,50.5 nM
same,IC50,second compound 0.316 µM,< 9.49 nM
same,IC50,second compound 1 µM,< 9.49 nM
same,IC50,second compound 3.16 µM,< 9.49 nM
same,IC50,second compound 10 µM,< 9.49 nM
same,"viability, T/C",[1],81.1%
same,"viability, T/C",[2],76%
same,"viability, T/C",[3],50.1%
same,"viability, T/C",[4],21.7%
same,"viability, T/C","second compound 0.0316 µM, first compound 0.949 µM",5.88%
same,"viability, T/C","second compound 0.0316 µM, first compound 3 µM",2%
same,"viability, T/C",[5],87.6%
same,"viability, T/C",[6],63.4%
same,"viability, T/C",[7],33.6%
same,"viability, T/C",[8],14.3%
same,"viability, T/C","second compound 0.1 µM, first compound 0.949 µM",3.11%
same,"viability, T/C","second compound 0.1 µM, first compound 3 µM",1.52%
same,"viability, T/C",[9],21.2%
same,"viability, T/C",[10],15%
same,"viability, T/C",[11],8.59%
same,"viability, T/C",[12],1.27%
same,"viability, T/C","second compound 0.316 µM, first compound 0.949 µM",1.18%
same,"viability, T/C","second compound 0.316 µM, first compound 3 µM",2%
same,"viability, T/C",[13],0.39%
same,"viability, T/C",[14],0.58%
same,"viability, T/C",[15],1.29%
same,"viability, T/C",[16],1.21%
same,"viability, T/C","second compound 1 µM, first compound 0.949 µM",2.26%
same,"viability, T/C","second compound 1 µM, first compound 3 µM",2.39%
same,"viability, T/C",[17],0.7%
same,"viability, T/C",[18],1.97%
same,"viability, T/C",[19],1.72%
same,"viability, T/C",[20],1.71%
same,"viability, T/C","second compound 3.16 µM, first compound 0.949 µM",1.82%
same,"viability, T/C","second compound 3.16 µM, first compound 3 µM",2.81%
same,"viability, T/C",[21],0.61%
same,"viability, T/C",[22],0.97%
same,"viability, T/C",[23],1.5%
same,"viability, T/C",[24],0.79%
same,"viability, T/C","second compound 10 µM, first compound 0.949 µM",0.88%
same,"viability, T/C","second compound 10 µM, first compound 3 µM",0.91%
